Source: the supplement of paper PMC10307832

How the values were obtained:
Assay in all cases: relative viability (nuclei count vs DMSO), 5 days (fraction); higher = more cells survive
Vemurafenib + Phenformin = compound: CCCS(=O)(=O)Nc1ccc(F)c(C(=O)c2c[nH]c3ncc(-c4ccc(Cl)cc4)cc23)c1F [Vemurafenib] + N=C(N)NC(=N)NCCc1ccccc1 [Phenformin] (partner 250 µM)
Summary of the method: (§1)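 Lung cancer cell lines in 1536-well plates were dosed by pin tool the day after seeding, either with one drug alone or with a fixed anchor-drug dose plus five library-drug doses (not always all listed) in √10 steps. After 5 days, cells were fixed and their nuclei stained in one step (final 0.05% Triton X-100, 1% formaldehyde, 1 ug/ml Hoechst), then counted on 4× images. Relative viability is the nuclei count in treated wells divided by that in vehicle wells. Values are medians of duplicate plates.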

OSI-027 + Tozasertib = compound: COc1cccc2cc(-c3nc([C@H]4CC[C@H](C(=O)O)CC4)n4ncnc(N)c34)[nH]c12 [OSI-027] + Cc1cc(Nc2cc(N3CCN(C)CC3)nc(Sc3ccc(NC(=O)C4CC4)cc3)n2)n[nH]1 [Tozasertib] (partner 0.1 µM)
Summary of the method: as §1

OSI-027 + Phenformin = compound: COc1cccc2cc(-c3nc([C@H]4CC[C@H](C(=O)O)CC4)n4ncnc(N)c34)[nH]c12 [OSI-027] + N=C(N)NC(=N)NCCc1ccccc1 [Phenformin] (partner 250 µM)
Summary of the method: as §1

Alpelisib + Olaparib = compound: Cc1nc(NC(=O)N2CCC[C@H]2C(N)=O)sc1-c1ccnc(C(C)(C)C(F)(F)F)c1 [Alpelisib] + O=C(c1cc(Cc2n[nH]c(=O)c3ccccc23)ccc1F)N1CCN(C(=O)C2CC2)CC1 [Olaparib] (partner 8 µM)
Summary of the method: as §1

| Cell Line | relative viability (Vemurafenib + Phenformin; first compound 0.03162 µM) | relative viability (Vemurafenib + Phenformin; first compound 0.1 µM) | relative viability (Vemurafenib + Phenformin; first compound 0.3162 µM) | relative viability (Vemurafenib + Phenformin; first compound 1 µM) | relative viability (OSI-027 + Tozasertib; first compound 0.01 µM) | relative viability (OSI-027 + Tozasertib; first compound 0.03162 µM) | relative viability (OSI-027 + Tozasertib; first compound 0.1 µM) | relative viability (OSI-027 + Tozasertib; first compound 0.3162 µM) | relative viability (OSI-027 + Tozasertib; first compound 1 µM) | relative viability (OSI-027 + Phenformin; first compound 0.01 µM) | relative viability (OSI-027 + Phenformin; first compound 0.03162 µM) | relative viability (OSI-027 + Phenformin; first compound 0.1 µM) | relative viability (OSI-027 + Phenformin; first compound 0.3162 µM) | relative viability (OSI-027 + Phenformin; first compound 1 µM) | relative viability (Alpelisib + Olaparib; first compound 0.04 µM) | relative viability (Alpelisib + Olaparib; first compound 0.1265 µM) | relative viability (Alpelisib + Olaparib; first compound 0.4 µM) | relative viability (Alpelisib + Olaparib; first compound 1.265 µM) | relative viability (Alpelisib + Olaparib; first compound 4 µM) |
| --- | --- | --- | --- | --- | --- | --- | --- | --- | --- | --- | --- | --- | --- | --- | --- | --- | --- | --- | --- |
| HCC-366 | 0.61 | 0.565 | 0.247 | 0.593 | 0.13 | 0.113 | 0.0867 | 0.128 | 0.0744 | 0.598 | 0.649 | 0.637 | 0.659 | 0.498 | 0.338 | 0.287 | 0.374 | 0.217 | 0.16 |
| HCC-827 | 0.377 |  | 0.425 | 0.404 | 0.447 | 0.478 | 0.456 | 0.343 | 0.363 | 0.358 | 0.423 | 0.408 | 0.4 | 0.328 | 0.601 | 0.678 | 0.768 | 0.499 | 0.503 |
| HOP-62 | 0.628 | 0.651 | 0.585 | 0.595 | 0.382 | 0.39 | 0.369 | 0.442 | 0.277 | 0.648 | 0.565 | 0.716 | 0.77 | 0.388 | 0.533 | 0.435 | 0.532 | 0.282 | 0.401 |
| IA-LM |  |  |  |  |  |  |  |  |  |  |  |  |  |  | 1.03 | 0.857 | 0.776 | 0.723 | 0.667 |
| LC-2-ad | 0.549 | 0.583 |  | 0.569 | 0.464 | 0.4 | 0.449 | 0.443 | 0.397 | 0.566 | 0.647 | 0.51 | 0.509 | 0.449 | 0.718 | 0.379 | 0.78 | 0.733 | 0.651 |
| LCLC-97TM1 | 0.4 | 0.43 | 0.43 | 0.342 | 0.299 | 0.192 | 0.228 | 0.18 | 0.0982 | 0.477 | 0.459 | 0.332 | 0.246 | 0.306 | 0.379 | 0.396 | 0.304 | 0.197 | 0.116 |
| LCLC-103H | 0.312 | 0.342 | 0.262 | 0.307 | 0.49 | 0.424 | 0.489 | 0.44 | 0.333 | 0.348 | 0.337 | 0.36 | 0.284 | 0.272 | 0.766 | 0.787 | 0.744 | 0.603 | 0.497 |
| LK-2 | 0.396 | 0.609 | 0.398 | 0.185 | 0.186 | 0.188 | 0.144 | 0.162 | 0.145 | 0.437 | 0.344 | 0.328 | 0.155 | 0.275 | 0.636 | 0.464 | 0.74 | 0.301 | 0.328 |
| LOU-NH91 | 0.644 |  |  | 0.731 | 0.656 | 0.617 | 0.571 | 0.658 | 0.484 | 0.699 | 0.679 | 0.504 | 0.548 | 0.411 | 0.915 | 0.87 | 0.844 | 0.65 | 0.777 |
| LU99A | 0.887 | 0.841 | 0.551 | 0.783 | 0.249 | 0.302 | 0.252 | 0.239 | 0.175 | 0.777 | 0.844 | 0.869 | 0.593 | 0.292 | 0.245 | 0.282 | 0.268 | 0.287 | 0.232 |
| LXF-289 | 0.456 | 0.457 | 0.435 | 0.551 | 0.17 | 0.209 | 0.201 | 0.195 | 0.133 | 0.525 | 0.518 | 0.543 | 0.484 | 0.398 | 1.04 | 1.04 | 1.12 | 0.997 | 0.942 |
| NCI-H23 | 0.702 | 0.797 | 0.728 | 0.723 | 0.636 | 0.269 | 0.34 | 0.413 | 0.306 | 0.824 | 0.767 | 0.808 | 0.669 | 0.533 | 0.254 | 0.269 | 0.321 | 0.232 | 0.289 |
| NCI-H322M | 0.714 |  |  | 0.724 | 0.488 | 0.485 | 0.413 | 0.397 | 0.307 | 0.737 | 0.748 | 0.674 | 0.531 | 0.498 | 0.804 | 0.82 | 0.791 | 0.671 | 0.53 |
| NCI-H358 | 0.282 | 0.19 | 0.448 | 0.455 | 0.105 | 0.0898 | 0.0968 | 0.0931 | 0.0733 | 0.309 | 0.301 | 0.311 | 0.334 | 0.283 | 0.665 | 0.578 | 0.544 | 0.403 | 0.332 |
| NCI-H441 | 0.952 | 0.856 | 0.739 | 0.744 | 0.625 | 0.72 | 0.629 | 0.535 | 0.489 | 0.895 | 0.879 | 0.841 | 0.55 | 0.474 | 0.549 | 0.478 | 0.733 | 0.46 | 0.236 |
| NCI-H1299 |  |  |  |  |  |  |  |  |  |  |  |  |  |  | 1 | 0.96 | 1.01 | 0.896 | 0.966 |
| NCI-H1563 | 0.632 | 0.705 | 0.66 | 0.672 |  |  |  |  |  | 0.674 | 0.647 | 0.618 | 0.681 | 0.589 |  |  |  |  |  |
| NCI-H1623 | 0.565 |  | 0.623 | 0.569 | 0.391 | 0.414 | 0.417 | 0.414 | 0.233 | 0.583 | 0.603 | 0.485 | 0.424 | 0.32 |  |  |  |  |  |
| NCI-H1648 |  |  |  |  | 0.412 |  | 0.419 | 0.366 | 0.305 |  |  |  |  |  | 0.887 | 0.758 | 1.13 | 0.4 | 0.331 |
| NCI-H1703 |  |  |  |  |  |  |  |  |  |  |  |  |  |  | 0.415 | 0.335 | 0.296 | 0.204 | 0.15 |
| NCI-H1792 | 0.228 | 0.236 | 0.115 | 0.336 |  |  |  |  |  | 0.126 | 0.168 | 0.228 | 0.204 | 0.173 | 0.48 | 0.528 | 0.68 | 0.36 | 0.205 |
